Reference: article PMC8234462, “Novel Cyclophilin Inhibitor Decreases Cell Proliferation and Tumor Growth in Models of Hepatocellular Carcinoma” (Cancers, 2021)

How the values were obtained:
[1] = tested on: Bone marrow progenitors; assay: Cytotoxicity, colony formation; assay type: cell-based, human; conditions: Homo sapiens, 336 h, 14 days of treatment, colonies counted
Experimental: The evaluation of the off-target effects of NV651 was performed by ImQuest BioSciences Inc. (Frederick, MD, USA) by analyzing the cytotoxicity in a panel of primary cells. NV651 was evaluated at a concentration of 30 µM and five serial half-logarithmic dilutions in triplicate. The positive control compounds for each cell type were purchased from Sigma-Aldrich (St. Louis, MO, USA) and were as follows: Unstimulated human peripheral blood mononuclear cells (PBMCs), phytohemagglutinin (PHA)-stimulated PBMCs, monocytes/macrophages, dendritic cells, hepatocytes, induced pluripotent stem cell (iPS) neurons: […] AZT, kidney cells (RPTEC): cisplatin and iPS cardiomyocytes: Doxazosin. Bone marrow progenitor cells (Invitrogen, Waltham, MA, USA) were suspended in cell culture medium (Iscove-modified Dulbecco medium) containing 15% FBS, 10% giant tumor-conditioned medium (Bone Marrow Plus, Sigma-Aldrich, St. […] Cells (1 × 10^5 cells/well) were seeded in 6-well plates containing NV651 in triplicate. Cells were incubated for 14 days, and colonies (more than 30 cells) were counted.

[2] = tested on: HEPG2; assay: Cell proliferation and viability with Acridine Orange and DAPI; assay type: cell-based, human
Experimental: (§1) For the quantification of the total cell number, cells were seeded at a concentration of 6000 cells/well for HEPG2 and 9000 cells/well for HUH7 in a 24-well plate. After 24 h of seeding, cells were treated with 10, 50 or 100 nM of NV651 or DMSO as the control dissolved in their correspondent media, fresh media with compound was added every 72 h. After 72 h of treatment, cells were harvested and stained with DAPI (Santa Cruz Biotechnology, Cat# SC3598, Dallas, TX, USA) and Acridine Orange (AO) (Sigma-Aldrich, Cat# A9231-10ML, St. Louis, MO, USA) at final concentrations of 5 µg/mL and 1.5 µg/mL, respectively. Quantification of the total cell number and nonviable cells was performed every day up to the tenth day. Total cell number was quantified with acridine orange staining, and the cell viability in each sample was quantified by the ratio between cells positive for DAPI staining (nonpermeable dye) and acridine orange staining.

[3] = tested on: HUH7; assay: as above; assay type: cell-based, human
Experimental: as §1

[4] = tested on: HEPG2; assay: Mitochondrial membrane potential (DiOC(6)3) and PI fluorocytometry; assay type: cell-based, human; conditions: 72 h, 20, 50 or 100 nM
Experimental: (§2) HEPG2 and HUH7 cells were seeded at 1.5 × 10^5 cells/well and 1 × 10^5 cells/well, respectively, 24 h prior to treatment. After 72 h of treatment (0, 20, 50 or 100 nM of NV651), supernatant and trypsinized cells were collected and stained with propidium iodide (PI) (Thermo Fisher Scientific, Waltham, MA, USA) at a concentration of 1 μg/mL to evaluate the plasma membrane integrity; due to the lack of cell permeability, only dead cells are able to incorporate it. In addition, changes in the mitochondrial membrane potential were evaluated by 3,3′-dihexyloxacarbocyanine iodide (DiOC(6)3)(Molecular Probes–Invitrogen, Waltham, MA, USA) staining at a concentration of 40 nM.
(§3) Data was acquired with FACSverse Instrument and analyzed with FCS Express 6 Flow Research.

[5] = tested on: HUH7; assay: as above; assay type: cell-based, human; conditions: 72 h, 20, 50 or 100 nM
Experimental: as §2, §3

[6] = tested on: HEPG2; assay: Cell cycle analysis (PI DNA content); assay type: cell-based, human
Experimental: (§4) For the quantification of the DNA content, cells were treated with DMSO or 100 nM of NV651. Samples were collected at 24, 48, 72 and 96 h, followed by fixation with 70% (v/v) ethanol. DNA was stained with 50-µg/mL PI. Due to the capacity of PI to stain any type of nucleotide, RNase (100 µg/mL) (Sigma-Aldrich, Cat# R4875-100MG, St. Louis, MO, USA) was also added. To quantify the apoptotic cell fraction, we measured the subG1 fraction in the cell cycle.
as §3

[7] = tested on: HUH7; assay: Cell cycle analysis (PI DNA content); assay type: cell-based, human
Experimental: as §4, §3

[8] = tested on: HUH7; assay: Mitotic quantification by immunofluorescence; assay type: cell-based, human; conditions: 10 or 100 nM, 48 h
Experimental: HUH7 cells were seeded at a concentration of 4.5 × 10^4 cells/well in a 6-well plate containing coverslips, followed by the treatment of NV651 at 10 or 100 nM or the equivalent volume in DMSO. After 48 h, samples were fixed with 4% PFA (Histolab, Cat# 02176, Gothenburg, Sweden) and permeabilized with 0.1% Triton x-100 (Sigma-Aldrich, Cat# X100-500ML, St. Louis, MO, USA) diluted in PBS. Samples were stained with 1-µg/mL of rat anti-tubulin (Abcam, Cat# ab6161, Cambridge, UK) for one hour at room temperature. Lastly, DAPI and secondary antibody goat anti-rat IgG AF546 conjugate (Invitrogen, Cat# A11081, Waltham, MA, USA) were added. Coverslips were mounted on glass slides adding fluorescent mounting media (Dako, Agilent, Santa Clara, CA, USA). Thirteen pictures at 10× were taken with a Zeiss Confocal microscope and quantified for the number of mitotic cells in relation to the total number of cells with ImageJ.

[9] = Stability of NV651 solution in 25% buffered HPbCD; assay type: physicochemical; conditions: stored at 4 °C
Experimental: Twenty-five percent buffered Hydroxy Propyl beta Cyclodextrin (HPbCD) was prepared from Hydroxy Propyl beta Cyclodextrin (Roquette, Lestrem, France), EDTA solution and phosphate buffer at a pH of 7.4, filtered with a […] (VWR, Cat# 28145-483, Radnor, PA, USA) and stored at 4 °C. NV651 was prepared at a concentration of 10 mg/kg with 25% buffered HPbCD (vehicle). NV651 solution was sonicated for 30 min in a water bath sonicator (Bioruptor, Diagenode, Denville, NJ, USA) and shaken for up to an hour, followed by a secondary sterilization with a 0.2-µm filter. NV651 solution was stored at 4 °C up to 2 weeks, with stability confirmed up to 3 weeks.

[10] = tested on: human-derived normal cells; assay: Cytotoxicity panel of human-derived normal cells (overall); assay type: cell-based; conditions: overall statement
Experimental: The evaluation of the off-target effects of NV651 was performed by ImQuest BioSciences Inc. (Frederick, MD, USA) by analyzing the cytotoxicity in a panel of primary cells. NV651 was evaluated at a concentration of 30 µM and five serial half-logarithmic dilutions in triplicate. The positive control compounds for each cell type were purchased from Sigma-Aldrich (St. Louis, MO, USA) and were as follows: […]

SMILES: CC(=O)CCC1C(=O)NC(C(C)C)C(=O)NC(Cc2cc(O)cc(F)c2)C(=O)N2CCCC(N2)C(=O)OC(C(C)=CC=CC(=O)OC(C)(C)C)CC=CC=CC(O)C(C)C1O (stereo not shown) [NV651]
- IC50 [1]: > 30 µM
- doubling time, elevated to ([2]; different concentrations of NV651 up to 10 days, from 43 h): 827 h
- cell viability (DAPI+ / AO+ cells) ([2]; up to 10 days of exposure): could not observe any differences
- cell viability (DAPI+ / AO+ cells) ([3]; after 10 days of exposure): significant decrease
- doubling time, elevated to ([3]; different concentrations of NV651 up to 10 days, from 35 h): 155 h
- changes in mitochondrial membrane potential (DiOC6(3)) and plasma membrane integrity (PI) [4]: did not show any significant differences
- changes in mitochondrial membrane potential (DiOC6(3)) and plasma membrane integrity (PI) [5]: did not show any significant differences
- cell size (FSC-A) ([6]; 100 nM NV651): increased trend in the cell size
- cell cycle distribution (DNA content) ([6]; 100 nM NV651, after 48–72 h): block in the G2/M phase
- subG1 fraction (apoptotic cells) ([6]; 100 nM NV651 up to 96 h): statistically significant increase in cell death
- cell size (FSC-A) ([7]; 100 nM NV651): increased trend in the cell size
- cell cycle distribution (DNA content) ([7]; 100 nM NV651, after 48–72 h): block in the G2/M phase
- subG1 fraction (apoptotic cells) ([7]; 100 nM NV651 up to 96 h): statistically significant increase in cell death
- number of mitotic counts [8]: increase in the number of mitotic counts
- stability of NV651 solution [9]: up to 3 weeks
- IC50 [10]: > 20 µM
